Measurements reported in publication PMC7978357, “Indole-3-acetic acid is a physiological inhibitor of TORC1 in yeast” (PLoS Genetics, 2021).
pKi: −log10 of the molar value.

Experiments:
[1] = molecular target: T1, TORC1 (Tor1 kinase subunit) (Saccharomyces cerevisiae, UniProt P35169); test: in vitro radioactive [γ-32P]-ATP kinase assay with purified TORC1, Lst4 loop substrate; enzyme kinetics; type: biochemical
T1 construct: TORC1 complex purified from yeast via Tco89-TEV-TAP (quantified with respect to the Tor1 subunit); with Kog1, Lst8, Tco89 (TORC1 subunits)
T1 sequence (P35169 whole entry): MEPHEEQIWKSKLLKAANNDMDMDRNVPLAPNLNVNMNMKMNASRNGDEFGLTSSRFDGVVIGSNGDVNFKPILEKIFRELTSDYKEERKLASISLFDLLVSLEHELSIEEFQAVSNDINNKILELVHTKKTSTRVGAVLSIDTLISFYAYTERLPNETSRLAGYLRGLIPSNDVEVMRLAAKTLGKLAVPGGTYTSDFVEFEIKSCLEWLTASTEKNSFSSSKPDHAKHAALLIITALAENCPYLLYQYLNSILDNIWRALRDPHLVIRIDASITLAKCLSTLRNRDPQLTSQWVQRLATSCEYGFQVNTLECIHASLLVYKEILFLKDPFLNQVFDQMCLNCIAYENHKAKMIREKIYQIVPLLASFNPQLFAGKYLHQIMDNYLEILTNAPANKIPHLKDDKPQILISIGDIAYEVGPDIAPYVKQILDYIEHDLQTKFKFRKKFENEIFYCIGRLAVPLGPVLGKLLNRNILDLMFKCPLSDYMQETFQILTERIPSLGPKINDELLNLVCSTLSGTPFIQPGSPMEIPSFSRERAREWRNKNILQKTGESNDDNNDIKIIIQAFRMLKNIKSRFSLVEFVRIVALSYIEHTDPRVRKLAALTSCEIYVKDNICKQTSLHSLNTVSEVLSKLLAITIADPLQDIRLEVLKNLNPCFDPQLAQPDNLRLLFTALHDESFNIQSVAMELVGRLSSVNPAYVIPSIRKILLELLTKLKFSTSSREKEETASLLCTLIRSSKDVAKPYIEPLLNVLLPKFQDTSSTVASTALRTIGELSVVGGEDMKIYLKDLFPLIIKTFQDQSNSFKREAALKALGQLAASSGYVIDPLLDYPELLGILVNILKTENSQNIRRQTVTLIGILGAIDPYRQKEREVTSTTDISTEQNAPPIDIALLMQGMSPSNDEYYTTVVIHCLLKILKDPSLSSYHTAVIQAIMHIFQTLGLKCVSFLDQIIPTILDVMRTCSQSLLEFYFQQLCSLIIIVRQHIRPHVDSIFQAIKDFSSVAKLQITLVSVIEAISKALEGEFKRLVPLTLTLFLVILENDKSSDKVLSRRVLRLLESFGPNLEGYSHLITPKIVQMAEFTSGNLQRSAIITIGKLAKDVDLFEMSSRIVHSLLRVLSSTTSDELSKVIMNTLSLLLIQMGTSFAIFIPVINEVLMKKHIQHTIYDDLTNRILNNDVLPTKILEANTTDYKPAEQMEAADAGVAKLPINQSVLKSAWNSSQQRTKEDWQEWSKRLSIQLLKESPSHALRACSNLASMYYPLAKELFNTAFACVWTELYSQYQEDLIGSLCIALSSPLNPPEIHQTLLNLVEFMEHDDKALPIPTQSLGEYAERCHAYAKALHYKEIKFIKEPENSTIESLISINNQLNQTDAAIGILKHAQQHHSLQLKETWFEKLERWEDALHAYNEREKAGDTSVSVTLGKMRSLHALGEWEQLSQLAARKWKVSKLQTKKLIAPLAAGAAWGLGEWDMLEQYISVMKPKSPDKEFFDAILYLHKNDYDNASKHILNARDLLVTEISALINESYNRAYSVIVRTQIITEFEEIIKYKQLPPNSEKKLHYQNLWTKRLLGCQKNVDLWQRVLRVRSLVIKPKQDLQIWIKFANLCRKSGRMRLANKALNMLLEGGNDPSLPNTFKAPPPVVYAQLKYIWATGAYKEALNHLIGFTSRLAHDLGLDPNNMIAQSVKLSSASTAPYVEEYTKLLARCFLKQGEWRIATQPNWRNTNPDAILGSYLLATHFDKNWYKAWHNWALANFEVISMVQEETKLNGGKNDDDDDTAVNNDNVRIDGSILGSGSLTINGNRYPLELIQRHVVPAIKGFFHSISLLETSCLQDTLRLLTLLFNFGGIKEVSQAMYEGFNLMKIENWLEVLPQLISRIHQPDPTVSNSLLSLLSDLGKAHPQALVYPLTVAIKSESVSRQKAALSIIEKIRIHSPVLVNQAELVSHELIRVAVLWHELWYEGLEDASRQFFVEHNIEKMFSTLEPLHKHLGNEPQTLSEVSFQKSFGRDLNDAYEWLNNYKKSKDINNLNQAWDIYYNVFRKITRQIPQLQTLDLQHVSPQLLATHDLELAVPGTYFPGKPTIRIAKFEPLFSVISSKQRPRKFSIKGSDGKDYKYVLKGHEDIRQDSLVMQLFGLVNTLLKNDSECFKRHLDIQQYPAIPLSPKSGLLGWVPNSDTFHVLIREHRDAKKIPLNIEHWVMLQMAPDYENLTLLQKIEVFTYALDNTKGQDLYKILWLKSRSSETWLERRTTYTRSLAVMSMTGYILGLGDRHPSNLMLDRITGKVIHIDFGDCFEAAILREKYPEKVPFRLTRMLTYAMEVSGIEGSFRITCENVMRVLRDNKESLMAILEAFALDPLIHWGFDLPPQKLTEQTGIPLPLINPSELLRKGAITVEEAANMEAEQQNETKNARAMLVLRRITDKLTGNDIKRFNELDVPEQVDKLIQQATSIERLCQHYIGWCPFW
T1 sequence (P38873 whole entry partner): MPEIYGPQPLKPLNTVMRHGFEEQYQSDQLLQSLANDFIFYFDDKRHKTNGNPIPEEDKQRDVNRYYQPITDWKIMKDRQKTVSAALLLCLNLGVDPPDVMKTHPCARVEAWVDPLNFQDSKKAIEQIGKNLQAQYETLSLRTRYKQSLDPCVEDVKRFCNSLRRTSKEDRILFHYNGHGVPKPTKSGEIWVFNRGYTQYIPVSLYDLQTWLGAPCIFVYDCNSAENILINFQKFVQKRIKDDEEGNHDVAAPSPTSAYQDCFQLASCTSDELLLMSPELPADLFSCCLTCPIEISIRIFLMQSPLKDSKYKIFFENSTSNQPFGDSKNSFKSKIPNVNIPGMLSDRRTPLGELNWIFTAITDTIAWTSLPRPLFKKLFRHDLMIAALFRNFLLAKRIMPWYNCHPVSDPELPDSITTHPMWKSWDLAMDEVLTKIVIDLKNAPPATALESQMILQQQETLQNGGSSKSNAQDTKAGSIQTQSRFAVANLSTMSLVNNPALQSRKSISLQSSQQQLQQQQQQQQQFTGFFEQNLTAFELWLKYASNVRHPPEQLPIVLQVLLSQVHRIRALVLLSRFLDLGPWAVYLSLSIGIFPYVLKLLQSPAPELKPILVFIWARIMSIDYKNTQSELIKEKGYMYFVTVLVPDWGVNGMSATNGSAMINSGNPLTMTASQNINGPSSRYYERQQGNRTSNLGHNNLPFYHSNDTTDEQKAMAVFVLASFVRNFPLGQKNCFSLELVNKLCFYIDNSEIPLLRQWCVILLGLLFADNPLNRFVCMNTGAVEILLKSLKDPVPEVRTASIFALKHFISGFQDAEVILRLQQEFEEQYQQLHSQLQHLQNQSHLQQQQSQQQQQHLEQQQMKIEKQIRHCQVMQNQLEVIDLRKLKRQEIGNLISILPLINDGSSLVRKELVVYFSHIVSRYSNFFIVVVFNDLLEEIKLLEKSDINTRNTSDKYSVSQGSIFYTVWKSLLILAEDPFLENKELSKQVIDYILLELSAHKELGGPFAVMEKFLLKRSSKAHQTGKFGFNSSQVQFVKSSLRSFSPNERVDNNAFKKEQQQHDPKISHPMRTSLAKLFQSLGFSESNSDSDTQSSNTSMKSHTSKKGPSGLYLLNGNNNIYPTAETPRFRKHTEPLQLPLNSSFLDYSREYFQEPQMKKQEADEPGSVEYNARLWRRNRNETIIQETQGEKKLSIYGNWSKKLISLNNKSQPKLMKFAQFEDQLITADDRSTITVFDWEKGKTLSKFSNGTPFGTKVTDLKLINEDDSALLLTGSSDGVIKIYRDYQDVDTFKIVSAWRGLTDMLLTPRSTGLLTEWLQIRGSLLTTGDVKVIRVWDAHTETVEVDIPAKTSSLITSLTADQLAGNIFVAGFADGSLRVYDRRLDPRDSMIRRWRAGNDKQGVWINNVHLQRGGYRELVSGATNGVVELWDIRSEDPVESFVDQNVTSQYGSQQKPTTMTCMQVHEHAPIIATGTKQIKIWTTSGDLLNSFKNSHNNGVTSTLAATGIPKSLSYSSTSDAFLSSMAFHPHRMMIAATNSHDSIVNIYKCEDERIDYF
T1 sequence (P41318 whole entry partner): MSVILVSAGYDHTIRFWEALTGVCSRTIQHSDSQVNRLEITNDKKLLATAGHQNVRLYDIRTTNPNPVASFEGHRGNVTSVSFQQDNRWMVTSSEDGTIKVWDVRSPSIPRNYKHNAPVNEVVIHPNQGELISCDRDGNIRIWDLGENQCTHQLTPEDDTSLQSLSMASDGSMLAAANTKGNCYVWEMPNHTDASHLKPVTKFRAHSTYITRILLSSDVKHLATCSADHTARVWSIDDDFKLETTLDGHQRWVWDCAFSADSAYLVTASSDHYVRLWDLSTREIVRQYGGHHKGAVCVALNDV

[2] = tested on: Nc1ncnc2c1ncn2[C@@H]1O[C@H](COP(=O)(O)OP(=O)(O)OP(=O)(O)O)[C@@H](O)[C@H]1O; test: purified protein; conditions: Mg2+

Compound	pKi [1]	Km [2] [µM]
O=C(O)Cc1c[nH]c2ccccc12 [IAA, Indole-3-acetic acid]	5.62	–
TORC1 (Tor1 kinase subunit) (Saccharomyces cerevisiae S288C)	–	50.5
